Measurements reported in patent US7635716B2, “Substituted cyclopentanes or cyclopentanones as therapeutic agents” (Allergan, Inc., priority 2005, dated 2009).
Read-outs that look alike come from different tables or passages of the source.

Key:
Assay type in all cases: cell-based
hTP = molecular target: T1, hTP (Homo sapiens, UniProt P21731); assay: FLIPR calcium signal, HEK-293(EBNA) cells
T1 construct: expressed in transfected cells; host or cells: HEK-293(EBNA) cells
T1 sequence (P21731 1-343): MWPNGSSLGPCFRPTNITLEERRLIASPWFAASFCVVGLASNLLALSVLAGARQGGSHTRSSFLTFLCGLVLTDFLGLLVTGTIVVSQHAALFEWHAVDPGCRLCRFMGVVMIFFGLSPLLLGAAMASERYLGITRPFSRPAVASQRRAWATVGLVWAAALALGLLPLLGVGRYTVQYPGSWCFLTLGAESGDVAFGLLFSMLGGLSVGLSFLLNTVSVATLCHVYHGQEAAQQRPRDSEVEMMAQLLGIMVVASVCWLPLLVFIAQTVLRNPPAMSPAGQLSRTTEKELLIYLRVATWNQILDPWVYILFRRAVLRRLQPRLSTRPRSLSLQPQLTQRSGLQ

hEP2/Gqs5 = molecular target: T2, hEP2/Gqs5 (Homo sapiens, UniProt P43116); assay: FLIPR calcium signal, HEK-293(EBNA) cells
T2 construct: expressed in transfected cells; host or cells: HEK-293(EBNA) cells
Procedure, shortened: (§1)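 Peak Fluo-4 fluorescence (2 µM dye loading, 45 min) was recorded in HEK-293(EBNA) cells stably expressing each human receptor, in HBSS-HEPES pH 7.4 at 37 °C. Signals were expressed relative to buffer and standard agonist controls: PGE2 (EP2, EP4), PGF2 (FP), carbacyclin (IP). Compounds were tested at 10^−5 M or from 10^−5 to 10^−11 M, in duplicate, n≧3.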

hEP4/Gqs5 = molecular target: T3, hEP4/Gqs5 (Homo sapiens, UniProt P35408); assay: FLIPR calcium signal, HEK-293(EBNA) cells
T3 construct: expressed in transfected cells; host or cells: HEK-293(EBNA) cells
Procedure, shortened: as §1

hEP3A/Gqi5 = molecular target: T4, hEP3A/Gqi5 (Homo sapiens, UniProt P43115); assay: FLIPR calcium signal, HEK-293(EBNA) cells
T4 construct: expressed in transfected cells; host or cells: HEK-293(EBNA) cells
T4 sequence (P43115 1-390): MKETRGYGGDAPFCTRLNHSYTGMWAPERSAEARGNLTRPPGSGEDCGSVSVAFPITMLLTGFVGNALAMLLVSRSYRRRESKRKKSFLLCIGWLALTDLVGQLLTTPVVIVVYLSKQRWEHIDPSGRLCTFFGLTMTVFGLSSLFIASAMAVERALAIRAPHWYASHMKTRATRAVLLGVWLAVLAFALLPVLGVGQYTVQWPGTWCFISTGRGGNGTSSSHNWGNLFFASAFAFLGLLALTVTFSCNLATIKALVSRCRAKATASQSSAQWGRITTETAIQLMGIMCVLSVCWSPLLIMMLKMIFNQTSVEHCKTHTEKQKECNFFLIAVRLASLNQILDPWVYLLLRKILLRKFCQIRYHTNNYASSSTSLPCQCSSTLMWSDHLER

hEP2 = hEP2 (Homo sapiens, UniProt P43116); assay: hEP2 cAMP functional assay; conditions: Table 1, second part
hEP1 = molecular target: T5, hEP1 (Homo sapiens, UniProt P34995); assay: FLIPR calcium signal, HEK-293(EBNA) cells
T5 construct: expressed in transfected cells; host or cells: HEK-293(EBNA) cells
T5 sequence (P34995 1-402): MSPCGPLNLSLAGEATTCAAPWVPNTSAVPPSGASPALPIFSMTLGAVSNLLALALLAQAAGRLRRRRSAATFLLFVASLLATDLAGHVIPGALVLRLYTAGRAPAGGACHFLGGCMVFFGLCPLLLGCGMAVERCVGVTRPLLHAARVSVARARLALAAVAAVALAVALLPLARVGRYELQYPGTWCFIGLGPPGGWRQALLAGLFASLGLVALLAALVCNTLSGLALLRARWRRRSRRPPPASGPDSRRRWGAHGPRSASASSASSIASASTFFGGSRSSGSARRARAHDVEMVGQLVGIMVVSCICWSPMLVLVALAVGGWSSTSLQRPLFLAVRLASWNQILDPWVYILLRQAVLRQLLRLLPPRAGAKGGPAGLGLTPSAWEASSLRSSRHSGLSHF

[1] = Table 1, first part, triplicate, read-out: functional data (EC50) hTP
[2] = Table 1, second part, quantity not given, values match functional data (EC50) of first part, read-out: Other Receptors hTP
[3] = Table 1, first part, triplicate, read-out: functional data (EC50) hEP2
[4] = Table 1, first part, triplicate, read-out: functional data (EC50) hEP4
[5] = Table 1, first part, data represents a single experiment, read-out: functional data (EC50) hEP3A*
[6] = Table 1, second part, quantity not given, values match functional data (EC50) of first part, read-out: Other Receptors hEP3
[7] = Table 1, first part, triplicate, read-out: functional data (EC50) hEP1
[8] = Table 1, second part, quantity not given, values match functional data (EC50) of first part, read-out: Other Receptors hEP1
[9] = Table 1, second part, read-out: hEP2 flipr EC50
[10] = Table 1, second part, read-out: hEP4 flipr EC50

hEP2, sequence (P43116 whole entry): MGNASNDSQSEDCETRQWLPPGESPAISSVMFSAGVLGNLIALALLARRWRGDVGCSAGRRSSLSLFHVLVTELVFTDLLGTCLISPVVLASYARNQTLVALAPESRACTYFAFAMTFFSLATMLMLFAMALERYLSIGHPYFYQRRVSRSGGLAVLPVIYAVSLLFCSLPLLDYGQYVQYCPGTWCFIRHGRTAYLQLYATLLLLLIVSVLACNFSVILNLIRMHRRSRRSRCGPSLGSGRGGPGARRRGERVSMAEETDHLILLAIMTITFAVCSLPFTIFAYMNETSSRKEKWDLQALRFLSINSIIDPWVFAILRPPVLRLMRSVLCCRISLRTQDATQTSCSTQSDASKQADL
T2 sequence (P43116 whole entry): as above
T3 sequence (P35408 whole entry): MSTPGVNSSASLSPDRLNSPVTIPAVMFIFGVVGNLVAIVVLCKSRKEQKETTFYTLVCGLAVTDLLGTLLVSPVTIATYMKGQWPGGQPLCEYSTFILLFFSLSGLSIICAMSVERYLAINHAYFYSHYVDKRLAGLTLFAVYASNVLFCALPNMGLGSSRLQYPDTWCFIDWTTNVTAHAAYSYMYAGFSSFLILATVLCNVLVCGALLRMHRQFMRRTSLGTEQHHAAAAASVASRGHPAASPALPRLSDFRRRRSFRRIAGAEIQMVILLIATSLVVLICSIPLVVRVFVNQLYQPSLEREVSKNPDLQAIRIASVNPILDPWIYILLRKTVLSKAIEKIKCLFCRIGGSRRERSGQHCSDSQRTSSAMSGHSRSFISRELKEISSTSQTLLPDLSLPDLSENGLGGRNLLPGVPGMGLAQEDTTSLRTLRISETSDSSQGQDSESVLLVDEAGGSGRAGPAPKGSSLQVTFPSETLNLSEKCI

Molecule	EC50 (hTP; [1])	EC50 (hTP; [2])	EC50 (hEP2/Gqs5; [3])	EC50 (hEP4/Gqs5; [4])	EC50 (hEP3A/Gqi5; [5])	EC50 (hEP3A/Gqi5; [6])	EC50 (hEP2)	EC50 (hEP1; [7])	EC50 (hEP1; [8])	EC50 (hEP2/Gqs5; [9])	EC50 (hEP4/Gqs5; [10])
O=C(O)CCCCCC[C@H]1C(=O)CC[C@@H]1COc1ccccc1 [Example 6, 7-((1R,5S)-2-Oxo-5-phenoxymethyl-cyclopentyl)-heptanoic acid]	> 10 µM	> 10 µM	731 nM	7880 nM	3.55 µM	3.55 µM	234 nM				
O=C(O)CCC/C=C\C[C@@H]1[C@@H](COc2ccccc2)[C@H](O)C[C@H]1Cl [Example 8, (Z)-7-((1R,2S,3R,5R)-5-Chloro-3-hydroxy-2-phenoxymethyl-cyclopentyl)-hept-5-enoic acid]	> 10 µM	> 10 µM	230 nM	3200 nM	7.33 µM	7.33 µM		> 10 µM	> 10 µM		
(Z)-7-((1R,2S,3R)-3-Hydroxy-5-oxo-2-phenoxymethyl-cyclopentyl)-hept-5-enoic acid [Example 4]	> 10 µM		5150 nM	> 10000 nM	18.5 µM			> 10 µM		> 10000 nM	360 nM
(Z)-7-((1R,5S)-2-Oxo-5-phenoxymethyl-cyclopent-3-enyl)-hept-5-enoic acid [Example 3]		> 10 µM	> 10000 nM	360 nM		18.5 µM			> 10 µM	5150 nM	> 10000 nM

Molecules with a lower EC50 (hEP2/Gqs5; [3]), results first:

EC50 (hTP; [1])	EC50 (hTP; [2])	EC50 (hEP2/Gqs5; [3])	EC50 (hEP4/Gqs5; [4])	EC50 (hEP3A/Gqi5; [5])	EC50 (hEP3A/Gqi5; [6])	EC50 (hEP2)	EC50 (hEP1; [7])	EC50 (hEP1; [8])	EC50 (hEP2/Gqs5; [9])	EC50 (hEP4/Gqs5; [10])	Molecule
> 10 µM	> 10 µM	123 nM	7210 nM	3.51 µM	3.51 µM	47 nM	> 10 µM	> 10 µM			O=C(O)CCCCCC[C@@H]1[C@@H](COc2ccccc2)[C@H](O)C[C@H]1Cl [Example 10, 7-((1R,2S,3R,5R)-5-Chloro-3-hydroxy-2-phenoxymethyl-cyclopentyl)-heptanoic acid]
> 10 µM	> 10 µM	24 nM	152 nM	3.49 µM	3.49 µM	14 nM	> 10 µM	> 10 µM			O=C(O)CCCCCC[C@@H]1[C@@H](COc2cc(Cl)cc(Cl)c2)[C@H](O)C[C@H]1Cl [Example 14, 7-[(1R,2S,3R,5R)-5-Chloro-2-(3,5-dichloro-phenoxymethyl)-3-hydroxy-cyclopentyl]-heptanoic acid]
> 10 µM	> 10 µM	0.8 nM	48 nM	1.26 µM	1.26 µM	0.9 nM	> 10 µM	> 10 µM	0.8 nM	48 nM	O=C(O)CCC/C=C\C[C@@H]1[C@@H](COc2cc(Cl)cc(Cl)c2)[C@H](O)C[C@H]1Cl [Example 12, (Z)-7-[(1R,2S,3R,5R)-5-Chloro-2-(3,5-dichloro-phenoxymethyl)-3-hydroxy-cyclopentyl]-hept-5-enoic acid]
